From patent publication US10428055B2, “Substituted piperidines having GPR119 agonistic activity” (DONG-A ST CO., LTD., priority 2014, dated 2019)

Assays:
[1] = target: T1, Human GPR119 (Homo sapiens, UniProt Q8TDV5); test: Human GPR119 activation assay (cAMP, HTRF); assay type: cell-based; conditions: HEK293 cells transiently expressing human GPR119, relative to maximum effect of OEA; for Emax at 0.001 µM / Emax at 0.01 µM: 1 h, read-out: hGPR119 activation ability (cAMP assay) Relative Response % vs OEA
T1 construct: host or cells: HEK293 (ATCC)
T1 sequence (Q8TDV5 1-335): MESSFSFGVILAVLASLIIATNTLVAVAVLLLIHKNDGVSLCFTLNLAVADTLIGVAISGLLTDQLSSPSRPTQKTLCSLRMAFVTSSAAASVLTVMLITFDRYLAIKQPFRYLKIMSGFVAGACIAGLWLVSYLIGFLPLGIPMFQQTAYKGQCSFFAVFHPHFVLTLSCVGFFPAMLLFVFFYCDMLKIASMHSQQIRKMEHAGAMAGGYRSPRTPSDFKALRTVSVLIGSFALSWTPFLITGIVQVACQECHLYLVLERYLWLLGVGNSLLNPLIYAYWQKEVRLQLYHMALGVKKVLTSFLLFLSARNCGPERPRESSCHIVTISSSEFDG
Source text: <Experimental Example 1>Human GPR119 activation assay
Human GPR119 was temporarily expressed on cells, thereby quantifying the amount of cyclic adenosine 3′,5′-monophosphate (cAMP) increased upon activating GPR119 by the compound of the present invention, using the product from Cysbio, by a method of HTRF (homogeneous time resolved fluorescence), and such quantification was used to refer to efficacy on GPR119 activation.
Human GPR119 expression vector (Origene) was overexpressed in […] renal epithelial cells (HEK293) (ATCC), and the cells were stabilized for 48 hours. With a solution of 11.1 mM glucose, 0.1% bovine serum albumin, and 0.5 mM IBMX (3-isobutyl-1-methylxanthine) which is a phosphodiesterase inhibitor being added to a KRBH (Krebs-Ringer Bicarbonate HEPES; Hou ZQ. et al., Mol Cell Endocrinol, 2008(291):71-78) buffer, the cells were pre-treated for 10 minutes. Thereafter, the cells were treated with the same solution containing a drug for 60 minutes, then the supernatant was removed, and the increase in cAMP in cells was quantified using a Cysbio cAMP HiRange kit.
As to the maximum efficacy of compounds tested, multiple concentration assessment for the compounds of the present invention was carried out, thereby assessing the relative activation level (%) to the maximum effect of oleoylethanolamide (OEA), an endogenous ligand of GPR119.

[2] = test system: C57BL/6 mouse; test: Assessment of glucose tolerance improvement effect in mouse; assay type: in vivo; conditions: 2 h; 10 mg/kg oral, 30 min before oral glucose 2 g/kg; male C57BL/6 mouse; blood glucose AUC
Method: <Experimental Example 2>Assessment of glucose tolerance improvement effect in mouse
As one of anti-diabetic effect indicators, the glucose tolerance improvement effect of the above compounds was evaluated in 7-week male laboratory mouse (C57BL/6 mouse), as the effect of improving postprandial glycemic control ability.
The laboratory mouse was fasted from the day before the experiment for 16-17 hours. The compound of the present invention was orally administered 30 minutes before administrating glucose, and after 30 minutes, a glucose solution (2 g/kg/10 ml) was orally administered. A drug was prepared by suspending in a 10% Gelucire solution. At the times immediately before drug administration, immediately before glucose solution administration, 15 minutes, 30 minutes, 60 minutes, 90 minutes, and 120 minutes after glucose administration, the whole blood glucose levels was measured from tail vein using a blood glucose meter (AccuChek Active, Roche Diagnostics), and the area under the curve of a temporal blood glucose curve was calculated. From the calculated area under the blood glucose curve, the area under the blood glucose curve of a negative control group to which no glucose solution was administered was subtracted, and inhibitory activity against blood glucose increase of a control group to which only the 10% Gelucire solution and glucose solution were administered was calculated as a percentage, thereby evaluating the glucose tolerance improvement efficacy of a drug.
The results are shown in Table 3, in which the glucose tolerance improvement effect represented at a dose of 10 mg/kg was represented by classifying into three groups, under 30%, more than 30% under 40%, and more than 40%. A significant glucose tolerance improvement effect was identified in 22 compounds on which the experiment was carried out, and among those compounds, 16 compounds represented an excellent in vivo activity of 30% inhibitory dose of 10 mg/kg or less. In the following Table 3, A represents an inhibitory activity more than 40%, B represents an inhibitory activity more than 30% under 40% and C represents an inhibitory activity under 30%.

Structure (SMILES)	Emax at 0.001 µM ([1]; 1 nM)	Emax at 0.01 µM ([1]; 10 nM)	inhibition in vivo at 10 mg/kg [2]	hGPR119 activation ability (cAMP assay) Relative Response % vs OEA ([1]; 1 nM)	hGPR119 activation ability (cAMP assay) Relative Response % vs OEA ([1]; 10 nM)
CCc1cnc(N2CCC(CCCOc3cc(F)c(-c4noc([C@@H](O)CC)n4)c(F)c3)CC2)nc1 [Example 19, (S)-1-(3-(4-(3-(1-(5-ethylpyrimidin-2-yl)piperidin-4-yl)propoxy)-2,6-difluorophenyl)-1,2,4-oxadiazol-5-yl) propan-1-ol]	46.5%	313%	30 to 40%		
CC(C)c1noc(N2CCC(CCCOc3cc(F)c(-c4noc(C(C)C)n4)c(F)c3)CC2)n1 [Example 40, 3-(2,6-difluoro-4-(3-(1-(3-isopropyl-1,2,4-oxadiazol-5-yl)piperidin-4-yl)propoxy)phenyl)-5-isopropyl-1,2,4-oxadiazole]	63.7%	206%	30 to 40%		
CC(C)c1noc(N2CCC(CCCOc3cc(F)c(C4=NCC(C)(C)O4)c(F)c3)CC2)n1 [Example 12, 5-(4-(3-(4-(5,5-dimethyl-4,5-dihydrooxazol-2-yl)-3,5-difluorophenoxy)propyl)piperidin-1-yl)-3-isopropyl-1,2,4-oxadiazole]	116%	232%	> 40%		
CCCc1cnc(N2CCC(CCCOc3cc(F)c(-c4noc(C(C)C)n4)c(F)c3)CC2)nc1 [Example 23, 3-(2,6-difluoro-4-(3-(1-(5-propylpyrimidin-2-yl)piperidin-4-yl)propoxy)phenyl)-5-isopropyl-1,2,4-oxadiazole]	78.3%	141%	> 40%		
CCc1cnc(N2CCC(CCCOc3cc(F)c(-c4nnc(CC)o4)c(F)c3)CC2)nc1 [Example 43, 2-ethyl-5-(4-(3-(1-(5-ethylpyrimidin-2-yl)piperidin-4-yl)propoxy)-2,6-difluorophenyl)-1,3,4-oxadiazole]	260%	538%	> 40%		
Cc1nnc(-c2c(F)cc(OCCCC3CCN(c4ncc(C(F)(F)F)cn4)CC3)cc2F)o1 [Example 46, 2-(2,6-difluoro-4-(3-(1-(5-(trifluoromethyl)pyrimidin-2-yl)piperidin-4-yl)propoxy)phenyl)-5-methyl-1,3,4-oxadiazole]	209%	239%	> 40%		
Cc1nnc(-c2c(F)cc(OCCCC3CCN(c4nc(C(C)C)no4)CC3)cc2F)o1 [Example 55, 5-(4-(3-(3,5-difluoro-4-(5-methyl-1,3,4-oxadiazol-2-yl)phenoxy)propyl)piperidin-1-yl)-3-isopropyl-1,2,4-oxadiazole]	168%	266%	30 to 40%		
CC(C)c1noc(N2CCC(CCCOc3cc(F)c(-c4nnc(C(C)C)o4)c(F)c3)CC2)n1 [Example 57, 5-(4-(3-(3,5-difluoro-4-(5-isopropyl-1,3,4-oxadiazol-2-yl)phenoxy)propyl)piperidin-1-yl)-3-isopropyl-1,2,4-oxadiazole]	255%	395%	30 to 40%		
CCc1cnc(N2CCC(CCCOc3cc(F)c(-c4noc(C)n4)c(F)c3)CC2)nc1 [Example 13, 3-(4-(3-(1-(5-ethylpyrimidin-2-yl)piperidin-4-yl)propoxy)-2,6-difluorophenyl)-5-methyl-1,2,4-oxadiazole]	49.4%	126%	30 to 40%		
CCc1cnc(N2CCC(CCCOc3cc(F)c(C4=NC[C@@H](C)O4)c(F)c3)CC2)nc1 [Example 5, (R)-2-(4-(3-(1-(5-ethylpyrimidin-2-yl)piperidin-4-yl)propoxy)-2,6-difluorophenyl)-5-methyl-4,5-dihydrooxazole]	44.6%	150%	> 40%		
CCc1cnc(N2CCC(CCCOc3cc(F)c(-c4noc(C(C)(C)CO)n4)c(F)c3)CC2)nc1 [Example 22, 2-(3-(4-(3-(1-(5-ethylpyrimidin-2-yl)piperidin-4-yl)propoxy)-2,6-difluorophenyl)-1,2,4-oxadiazol-5-yl)-2-methylpropan-1-ol]	54.9%	178%	30 to 40%		
CC(C)c1nc(-c2c(F)cc(OCCCC3CCN(c4ncc(Cl)cn4)CC3)cc2F)no1 [Example 28, 3-(4-(3-(1-(5-chloropyrimidin-2-yl)piperidin-4-yl)propoxy)-2,6-difluorophenyl)-5-isopropyl-1,2,4-oxadiazole]	23.8%	115%	< 30%		
CC(C)c1noc(N2CCC(CCCOc3cc(F)c(C4=NC[C@H](C)O4)c(F)c3)CC2)n1 [Example 11, (S)-5-(4-(3-(3,5-difluoro-4-(5-methyl-4,5-dihydrooxazol-2-yl)phenoxy)propyl)piperidin-1-yl)-3-isopropyl-1,2,4-oxadiazole]	184%	266%	< 30%		
CC(C)c1nc(-c2c(F)cc(OCCCC3CCN(c4ccc(C(F)(F)F)cn4)CC3)cc2F)no1 [Example 38, 3-(2,6-difluoro-4-(3-(1-(5-(trifluoromethyl)pyridin-2-yl)piperidin-4-yl)propoxy)phenyl)-5-isopropyl-1,2,4-oxadiazole]	102%	120%	< 30%		
CCc1cnc(N2CCC(CCCOc3cc(F)c(C4=NC[C@H](C)O4)c(F)c3)CC2)nc1 [Example 4, (S)-2-(4-(3-(1-(5-ethylpyrimidin-2-yl)piperidin-4-yl)propoxy)-2,6-difluorophenyl)-5-methyl-4,5-dihydrooxazole]	79.6%	167%	< 30%		
CC(C)c1nc(-c2c(F)cc(OCCCC3CCN(c4ncc(C(F)(F)F)cn4)CC3)cc2F)no1 [Example 25, 3-(2,6-difluoro-4-(3-(1-(5-(trifluoromethyl)pyrimidin-2-yl)piperidin-4-yl)propoxy)phenyl)-5-isopropyl-1,2,4-oxadiazole]	159%	274%	< 30%		
CCc1nnc(-c2c(F)cc(OCCCC3CCN(c4ncc(C(F)(F)F)cn4)CC3)cc2F)o1 [Example 47, 2-(2,6-difluoro-4-(3-(1-(5-(trifluoromethyl)pyrimidin-2-yl)piperidin-4-yl)propoxy)phenyl)-5-ethyl-1,3,4-oxadiazole]	66%	218%	> 40%		
CCc1cnc(N2CCC(CCCOc3cc(F)c(C4=NC[C@H](CO)O4)c(F)c3)CC2)nc1 [Example 7, (R)-(2-(4-(3-(1-(5-ethylpyrimidin-2-yl)piperidin-4-yl)propoxy)-2,6-difluorophenyl)-4,5-dihydrooxazol-5-yl)methanol]	51.3%	170%	< 30%		
CCc1cnc(N2CCC(CCCOc3cc(F)c(-c4noc(C(C)C)n4)c(F)c3)CC2)nc1 [Example 15, 3-(4-(3-(1-(5-ethylpyrimidin-2-yl)piperidin-4-yl)propoxy)-2,6-difluorophenyl)-5-isopropyl-1,2,4-oxadiazole]			> 40%	87.7%	183.8%
